Test results taken from patent US12037344B2, “NLRP3 modulators” (INNATE TUMOR IMMUNITY, INC., priority 2018, dated 2024).

What was measured:
[1] = target: T1, TLR8 (Homo sapiens, UniProt Q9NR97); test: In vitro human TLR8 binding reporter assay (HEK-Blue, NF-kB/AP1-inducible SEAP); type: cell-based; settings: activity range class, read-out: TLR8 Agonist EC50
T1 construct: human HEK-Blue cells co-expressing a TLR7 or TLR8 gene
T1 sequence (Q9NR97 27-1041): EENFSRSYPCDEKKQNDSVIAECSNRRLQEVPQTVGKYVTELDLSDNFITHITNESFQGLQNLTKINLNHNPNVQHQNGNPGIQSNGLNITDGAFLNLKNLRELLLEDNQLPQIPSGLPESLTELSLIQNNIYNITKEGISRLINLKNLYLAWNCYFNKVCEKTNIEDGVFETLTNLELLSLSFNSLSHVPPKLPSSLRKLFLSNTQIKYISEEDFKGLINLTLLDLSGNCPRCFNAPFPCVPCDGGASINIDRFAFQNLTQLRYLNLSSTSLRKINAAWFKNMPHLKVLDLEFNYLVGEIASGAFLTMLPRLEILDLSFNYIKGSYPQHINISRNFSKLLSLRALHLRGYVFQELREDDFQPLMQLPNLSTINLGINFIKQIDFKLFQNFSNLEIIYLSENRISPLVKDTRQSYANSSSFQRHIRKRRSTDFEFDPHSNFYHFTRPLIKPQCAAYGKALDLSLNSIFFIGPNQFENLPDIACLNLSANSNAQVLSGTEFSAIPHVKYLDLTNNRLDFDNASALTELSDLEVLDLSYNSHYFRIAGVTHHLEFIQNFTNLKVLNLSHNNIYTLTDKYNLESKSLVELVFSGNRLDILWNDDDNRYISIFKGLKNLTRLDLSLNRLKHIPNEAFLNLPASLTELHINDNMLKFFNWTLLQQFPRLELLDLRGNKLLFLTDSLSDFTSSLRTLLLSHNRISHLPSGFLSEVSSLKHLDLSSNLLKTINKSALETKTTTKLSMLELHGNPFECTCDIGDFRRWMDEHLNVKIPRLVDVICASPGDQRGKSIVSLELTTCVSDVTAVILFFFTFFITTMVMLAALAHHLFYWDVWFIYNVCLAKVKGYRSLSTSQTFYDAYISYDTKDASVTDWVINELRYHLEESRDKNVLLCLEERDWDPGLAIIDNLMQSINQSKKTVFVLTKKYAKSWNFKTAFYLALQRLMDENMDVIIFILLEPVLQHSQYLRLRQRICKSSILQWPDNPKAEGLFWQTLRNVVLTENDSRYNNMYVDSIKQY
Summary of the method: (§1)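 EC50s come from NF-kB/AP1-driven SEAP secretion in HEK-Blue cells expressing TLR7 or TLR8, measured with Quanti-Blue after an 18 h compound incubation. Maximal response is defined by a 50 μM reference standard.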

[2] = tested on: THP-1 cells; test: Measurement of IL-1β production, hTRF protocol (second alternative procedure), THP-1 cells; type: cell-based, human; settings: Homo sapiens, THP-1, IL-1β production, human; read-out: NLRP3 hILIB EC50
Summary of the method: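 Compounds, dilution series starting at a final 10 μM, were incubated 2 hours at 37° C with PMA-differentiated THP-1 cells (50 ng/ml overnight; 50,000 cells/well, 2% FBS RPMI). Released IL-1β quantified in supernatant by hTRF kit with 1:40 antibody dilution, 4° C overnight, 665/615 nm ratio.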

[3] = target: T2, TLR7 (Homo sapiens, UniProt Q9NYK1); test: In vitro human TLR7 binding reporter assay (HEK-Blue, NF-kB/AP1-inducible SEAP); type: cell-based; settings: activity range class, read-out: TLR7 Agonist EC50
T2 construct: human HEK-Blue cells co-expressing a TLR7 or TLR8 gene
T2 sequence (Q9NYK1 27-1049): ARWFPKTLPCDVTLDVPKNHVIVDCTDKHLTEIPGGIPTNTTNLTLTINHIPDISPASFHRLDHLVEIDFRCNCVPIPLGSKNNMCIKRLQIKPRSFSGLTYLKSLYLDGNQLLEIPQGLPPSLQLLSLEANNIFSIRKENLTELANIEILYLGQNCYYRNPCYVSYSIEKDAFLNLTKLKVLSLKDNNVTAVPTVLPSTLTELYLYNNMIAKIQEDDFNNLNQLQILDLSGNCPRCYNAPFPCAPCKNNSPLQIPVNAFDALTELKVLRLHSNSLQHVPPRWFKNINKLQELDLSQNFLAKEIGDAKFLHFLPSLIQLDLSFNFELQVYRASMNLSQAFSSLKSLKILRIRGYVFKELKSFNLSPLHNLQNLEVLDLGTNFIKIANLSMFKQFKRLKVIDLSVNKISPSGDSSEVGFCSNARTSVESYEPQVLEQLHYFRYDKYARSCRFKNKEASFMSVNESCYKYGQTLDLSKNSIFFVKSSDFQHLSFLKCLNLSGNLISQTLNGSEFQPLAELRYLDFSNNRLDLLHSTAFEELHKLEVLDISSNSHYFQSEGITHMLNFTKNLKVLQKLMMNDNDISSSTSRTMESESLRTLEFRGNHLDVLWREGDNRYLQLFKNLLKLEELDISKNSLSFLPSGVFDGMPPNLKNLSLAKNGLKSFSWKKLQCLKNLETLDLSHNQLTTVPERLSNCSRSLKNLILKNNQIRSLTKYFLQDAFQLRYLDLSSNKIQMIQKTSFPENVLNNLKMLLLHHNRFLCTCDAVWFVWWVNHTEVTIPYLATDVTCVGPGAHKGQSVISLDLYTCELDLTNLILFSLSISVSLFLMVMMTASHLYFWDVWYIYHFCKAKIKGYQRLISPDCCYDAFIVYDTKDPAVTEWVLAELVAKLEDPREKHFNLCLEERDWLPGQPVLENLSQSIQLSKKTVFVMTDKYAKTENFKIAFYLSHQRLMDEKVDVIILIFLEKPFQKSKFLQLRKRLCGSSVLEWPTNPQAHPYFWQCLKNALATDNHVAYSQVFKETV
Summary of the method: as §1

EC50 [1] [µM]	EC50 [2] [µM]	EC50 [3] [µM]	Structure (SMILES)
> 100	0.6	> 100	CC(C)(Cn1cc2c(N)nc3cc(-c4cc[nH]n4)ccc3c2n1)NC(=O)c1ccc(F)cn1 [Example 293]
> 100	0.43	> 100	CC(Cn1cc2c(N)nc3cc(-c4ccn[nH]4)ccc3c2n1)NC(=O)c1ccc(F)cn1 (stereo not drawn) [Example 294]
> 100	0.42	> 100	CC(Cn1cc2c(N)nc3cc(-c4ccn[nH]4)ccc3c2n1)NC(=O)c1cc(F)ccn1 (stereo not drawn) [Example 295]
> 100	1.7	> 100	COCC(=O)NC(C)Cn1cc2c(N)nc3cc(-c4ccn[nH]4)ccc3c2n1 (stereo not drawn) [Example 296]
> 100	2.83	> 100	CCC(=O)NC(C)Cn1cc2c(N)nc3cc(-c4ccn[nH]4)ccc3c2n1 (stereo not drawn) [Example 297]
> 100	4.32	> 100	CCOCC(=O)NC(C)Cn1cc2c(N)nc3cc(-c4ccn[nH]4)ccc3c2n1 (stereo not drawn) [Example 298]
> 100	1.4	> 100	CC(Cn1cc2c(N)nc3cc(-c4ccn[nH]4)ccc3c2n1)NS(C)(=O)=O (stereo not drawn) [Example 301]
> 100	3.49	> 100	CC(Cn1ncc2c(N)nc3cc(-c4cc[nH]n4)ccc3c21)NS(C)(=O)=O (stereo not drawn) [Example 302]
> 100	0.21	> 100	COCCCn1cc2c(N)nc3cc(-c4cc[nH]n4)ccc3c2n1 [Example 303]
> 100	0.66	> 100	Nc1nc2cc(-c3cc[nH]n3)ccc2c2nn(CCN3CCCC3)cc12 [Example 304]
> 100	0.29	> 100	CCCCn1cc2c(N)nc3cc(-c4cc[nH]n4)ccc3c2n1 [Example 305]
> 100	1.26	> 100	COCC(O)Cn1ncc2c(N)nc3cc(-c4cc[nH]n4)ccc3c21 (stereo not drawn) [Example 306]
> 100	0.43	> 100	COCC(O)Cn1cc2c(N)nc3cc(-c4cc[nH]n4)ccc3c2n1 (stereo not drawn) [Example 307]
> 100	0.41	> 100	C[C@H](CO)Cn1cc2c(N)nc3cc(-c4cc[nH]n4)ccc3c2n1 [Example 308]
> 100	0.75	> 100	Nc1nc2cc(-c3cc[nH]n3)ccc2c2nn(CCOCCO)cc12 [Example 309]
> 100	0.75	> 100	COCCOCCn1cc2c(N)nc3cc(-c4cc[nH]n4)ccc3c2n1 [Example 310]
> 100	0.71	> 100	Nc1nc2cc(-c3cc[nH]n3)ccc2c2c1cnn2C1CCOCC1 [Example 311]
> 100	0.22	> 100	Nc1nc2cc(-c3cc[nH]n3)ccc2c2nn(C3CCCOC3)cc12 (stereo not drawn) [Example 312]
> 100	0.26	> 100	CC(C)(CO)Cn1cc2c(N)nc3cc(-c4cc[nH]n4)ccc3c2n1 [Example 313]
> 100	2.42	> 100	Nc1nc2cc(-c3cc[nH]n3)ccc2c2nn(C3CCCCC3O)cc12 (stereo not drawn) [Example 317]
> 100	6.57	> 100	Nc1nc2cc(-c3cc[nH]n3)ccc2c2nn(CC3(O)CCOCC3)cc12 [Example 320]
> 100	0.19	> 100	Nc1nc2cc(-c3cc[nH]n3)ccc2c2nn(CCF)cc12 [Example 321]
> 100	0.83	> 100	COC(C)(C)Cn1cc2c(N)nc3cc(-c4cc[nH]n4)ccc3c2n1 [Example 322]
> 100	0.78	> 100	Nc1nc2cc(-c3cc[nH]n3)ccc2c2nn(C3COCC3O)cc12 (stereo not drawn) [Example 323]
> 100	0.22	> 100	CC(C)n1cc2c(N)nc3cc(-c4cc[nH]n4)ccc3c2n1 [Example 326]
